Reference: ChEMBL document CHEMBL3774313, “Natural product-based design, synthesis and biological evaluation of Albiziabioside A derivatives that selectively induce HCT116 cell death” (Eur J Med Chem, 2016)
pIC50: −log10 of the molar value.

Legend:
Assay type in all cases: functional, cell-based
[1] = Antiproliferative activity against human HCT116 cells assessed as cell viability after 72 hrs by MTT assay; settings: HCT-116, 72 h
HeLa = assay: Antiproliferative activity against human HeLa cells assessed as cell viability after 72 hrs by MTT assay
HepG2 = assay: Antiproliferative activity against human HepG2 cells assessed as cell viability after 72 hrs by MTT assay; settings: HepG2, 72 h
[2] = Antiproliferative activity against human HL60 cells assessed as cell viability after 72 hrs by MTT assay; settings: HL-60, 72 h
MCF7 = assay: Antiproliferative activity against human MCF7 cells assessed as cell viability after 72 hrs by MTT assay; settings: MCF7, 72 h
A549 = assay: Antiproliferative activity against human A549 cells assessed as cell viability after 72 hrs by MTT assay; settings: A549, 72 h
[3] = Cytotoxicity against mouse J774A1 cells assessed as cell viability after 72 hrs by MTT assay; settings: J774.A1, 72 h

COc1ccc(/C=C/C(=O)N[C@H]2[C@H](O[C@H]3CC[C@]4(C)[C@H]5CC=C6[C@@H]7CC(C)(C)CC[C@]7(C(=O)O)CC[C@@]6(C)[C@]5(C)CC[C@H]4C3(C)C)O[C@H](CO[C@@H]3OC[C@H](O)[C@H](O)[C@H]3O)[C@@H](O)[C@@H]2O)cc1OC
pIC50 [1]: < 4.30
pIC50 (HeLa): < 4.30
pIC50 (HepG2): < 4.30
pIC50 [2]: < 4.30
pIC50 (MCF7): < 4.30
pIC50 (A549): < 4.30

COc1cccc(/C=C/C(=O)N[C@H]2[C@H](O[C@H]3CC[C@]4(C)[C@H]5CC=C6[C@@H]7CC(C)(C)CC[C@]7(C(=O)O)CC[C@@]6(C)[C@]5(C)CC[C@H]4C3(C)C)O[C@H](CO[C@@H]3OC[C@H](O)[C@H](O)[C@H]3O)[C@@H](O)[C@@H]2O)c1OC
pIC50 [1]: < 4.30
pIC50 (HeLa): < 4.30
pIC50 (HepG2): < 4.30
pIC50 [2]: < 4.30
pIC50 (MCF7): < 4.30
pIC50 (A549): < 4.30

CC1(C)CC[C@]2(C(=O)O)CC[C@]3(C)C(=CC[C@@H]4[C@@]5(C)CC[C@H](O[C@@H]6O[C@H](CO[C@@H]7OC[C@H](O)[C@H](O)[C@H]7O)[C@@H](O)[C@H](O)[C@H]6NC(=O)/C=C/c6ccc(Br)cc6)C(C)(C)[C@@H]5CC[C@]43C)[C@@H]2C1
pIC50 [1]: 4.48
pIC50 (HeLa): < 4.30
pIC50 (HepG2): < 4.30
pIC50 [2]: < 4.30
pIC50 (MCF7): < 4.30
pIC50 (A549): < 4.30

Cc1cccc(/C=C/C(=O)N[C@H]2[C@H](O[C@H]3CC[C@]4(C)[C@H]5CC=C6[C@@H]7CC(C)(C)CC[C@]7(C(=O)O)CC[C@@]6(C)[C@]5(C)CC[C@H]4C3(C)C)O[C@H](CO[C@@H]3OC[C@H](O)[C@H](O)[C@H]3O)[C@@H](O)[C@@H]2O)c1
pIC50 [1]: < 4.30
pIC50 (HeLa): < 4.30
pIC50 (HepG2): < 4.30
pIC50 [2]: < 4.30
pIC50 (MCF7): < 4.30
pIC50 (A549): < 4.30

CC1(C)CC[C@]2(C(=O)O)CC[C@]3(C)C(=CC[C@@H]4[C@@]5(C)CC[C@H](O[C@@H]6O[C@H](CO[C@@H]7OC[C@H](O)[C@H](O)[C@H]7O)[C@@H](O)[C@H](O)[C@H]6NC(=O)/C=C/c6cccc(F)c6)C(C)(C)[C@@H]5CC[C@]43C)[C@@H]2C1
pIC50 [1]: 5.07
pIC50 (HeLa): 4.32
pIC50 (HepG2): < 4.30
pIC50 [2]: < 4.30
pIC50 (MCF7): < 4.30
pIC50 (A549): 4.48

CC(=O)N[C@H]1[C@H](O[C@H]2CC[C@]3(C)[C@H]4CC=C5[C@@H]6CC(C)(C)CC[C@]6(C(=O)O)CC[C@@]5(C)[C@]4(C)CC[C@H]3C2(C)C)O[C@H](CO[C@@H]2OC[C@H](O)[C@H](O)[C@H]2O)[C@@H](O)[C@@H]1O
pIC50 [1]: 4.80
pIC50 (HeLa): 5.28
pIC50 (HepG2): 4.99
pIC50 [2]: 5.00
pIC50 (MCF7): 5.03
pIC50 (A549): 5.28

Cc1ccc(/C=C/C(=O)N[C@H]2[C@H](O[C@H]3CC[C@]4(C)[C@H]5CC=C6[C@@H]7CC(C)(C)CC[C@]7(C(=O)O)CC[C@@]6(C)[C@]5(C)CC[C@H]4C3(C)C)O[C@H](CO[C@@H]3OC[C@H](O)[C@H](O)[C@H]3O)[C@@H](O)[C@@H]2O)cc1
pIC50 [1]: 4.79
pIC50 (HeLa): < 4.30
pIC50 (HepG2): < 4.30
pIC50 [2]: < 4.30
pIC50 (MCF7): 4.42
pIC50 (A549): < 4.30

CC1(C)CC[C@]2(C(=O)O)CC[C@]3(C)C(=CC[C@@H]4[C@@]5(C)CC[C@H](O[C@@H]6O[C@H](CO[C@@H]7OC[C@H](O)[C@H](O)[C@H]7O)[C@@H](O)[C@H](O)[C@H]6NC(=O)/C=C/c6ccc(F)cc6)C(C)(C)[C@@H]5CC[C@]43C)[C@@H]2C1
pIC50 [1]: 4.43
pIC50 (HeLa): < 4.30
pIC50 (HepG2): < 4.30
pIC50 [2]: < 4.30
pIC50 (MCF7): < 4.30
pIC50 (A549): < 4.30

O=c1[nH]cc(F)c(=O)[nH]1 [FLUOROURACIL]
pIC50 [1]: 4.42
pIC50 (HeLa): 4.58
pIC50 (HepG2): 4.31
pIC50 [2]: 4.56
pIC50 (MCF7): 4.58
pIC50 (A549): < 4.30

CCOc1ccc(/C=C/C(=O)N[C@H]2[C@H](O[C@H]3CC[C@]4(C)[C@H]5CC=C6[C@@H]7CC(C)(C)CC[C@]7(C(=O)O)CC[C@@]6(C)[C@]5(C)CC[C@H]4C3(C)C)O[C@H](CO[C@@H]3OC[C@H](O)[C@H](O)[C@H]3O)[C@@H](O)[C@@H]2O)cc1
pIC50 [1]: 4.89
pIC50 (HeLa): < 4.30
pIC50 (HepG2): < 4.30
pIC50 [2]: < 4.30
pIC50 (MCF7): < 4.30
pIC50 (A549): < 4.30

CC1(C)CC[C@]2(C(=O)O)CC[C@]3(C)C(=CC[C@@H]4[C@@]5(C)CC[C@H](O[C@@H]6O[C@H](CO[C@@H]7OC[C@H](O)[C@H](O)[C@H]7O)[C@@H](O)[C@H](O)[C@H]6NC(=O)/C=C/c6ccc(OCc7ccccc7)cc6)C(C)(C)[C@@H]5CC[C@]43C)[C@@H]2C1
pIC50 [1]: 4.62
pIC50 (HeLa): < 4.30
pIC50 (HepG2): < 4.30
pIC50 [2]: < 4.30
pIC50 (MCF7): < 4.30
pIC50 (A549): < 4.30

CC1(C)CC[C@]2(C(=O)O)CC[C@]3(C)C(=CC[C@@H]4[C@@]5(C)CC[C@H](O[C@@H]6O[C@H](CO[C@@H]7OC[C@H](O)[C@H](O)[C@H]7O)[C@@H](O)[C@H](O)[C@H]6NC(=O)/C=C/c6cccc(Cl)c6)C(C)(C)[C@@H]5CC[C@]43C)[C@@H]2C1
pIC50 [1]: 4.93
pIC50 (HeLa): < 4.30
pIC50 (HepG2): < 4.30
pIC50 [2]: < 4.30
pIC50 (MCF7): < 4.30
pIC50 (A549): < 4.30

COc1ccccc1/C=C/C(=O)N[C@H]1[C@H](O[C@H]2CC[C@]3(C)[C@H]4CC=C5[C@@H]6CC(C)(C)CC[C@]6(C(=O)O)CC[C@@]5(C)[C@]4(C)CC[C@H]3C2(C)C)O[C@H](CO[C@@H]2OC[C@H](O)[C@H](O)[C@H]2O)[C@@H](O)[C@@H]1O
pIC50 [1]: < 4.30
pIC50 (HeLa): < 4.30
pIC50 (HepG2): < 4.30
pIC50 [2]: < 4.30
pIC50 (MCF7): < 4.30
pIC50 (A549): < 4.30

COc1cc(/C=C/C(=O)N[C@H]2[C@H](O[C@H]3CC[C@]4(C)[C@H]5CC=C6[C@@H]7CC(C)(C)CC[C@]7(C(=O)O)CC[C@@]6(C)[C@]5(C)CC[C@H]4C3(C)C)O[C@H](CO[C@@H]3OC[C@H](O)[C@H](O)[C@H]3O)[C@@H](O)[C@@H]2O)cc(OC)c1
pIC50 [1]: < 4.30
pIC50 (HeLa): < 4.30
pIC50 (HepG2): < 4.30
pIC50 [2]: < 4.30
pIC50 (MCF7): < 4.30
pIC50 (A549): < 4.30

CC1(C)CC[C@]2(C(=O)O)CC[C@]3(C)C(=CC[C@@H]4[C@@]5(C)CC[C@H](O[C@@H]6O[C@H](CO[C@@H]7OC[C@H](O)[C@H](O)[C@H]7O)[C@@H](O)[C@H](O)[C@H]6NC(=O)/C=C/c6cccc(Br)c6)C(C)(C)[C@@H]5CC[C@]43C)[C@@H]2C1
pIC50 [1]: 4.99
pIC50 (HeLa): < 4.30
pIC50 (HepG2): < 4.30
pIC50 [2]: < 4.30
pIC50 (MCF7): < 4.30
pIC50 (A549): < 4.30

CC(=O)N[C@H]1[C@H](O[C@H]2CC[C@]3(C)[C@H]4CC=C5[C@@H]6CC(C)(C)CC[C@]6(C(=O)O)CC[C@@]5(C)[C@]4(C)CC[C@H]3C2(C)C)O[C@H](CO)[C@@H](O)[C@@H]1O[C@@H]1O[C@H](CO)[C@H](O)[C@H](O)[C@H]1O [LOTOIDOSIDE E]
pIC50 [3]: 7.74

COc1ccc(OC)c(/C=C/C(=O)N[C@H]2[C@H](O[C@H]3CC[C@]4(C)[C@H]5CC=C6[C@@H]7CC(C)(C)CC[C@]7(C(=O)O)CC[C@@]6(C)[C@]5(C)CC[C@H]4C3(C)C)O[C@H](CO[C@@H]3OC[C@H](O)[C@H](O)[C@H]3O)[C@@H](O)[C@@H]2O)c1
pIC50 [1]: < 4.30
pIC50 (HeLa): < 4.30
pIC50 (HepG2): < 4.30
pIC50 [2]: < 4.30
pIC50 (MCF7): < 4.30
pIC50 (A549): < 4.30

CC1(C)CC[C@]2(C(=O)O)CC[C@]3(C)C(=CC[C@@H]4[C@@]5(C)CC[C@H](O[C@@H]6O[C@H](CO[C@@H]7OC[C@H](O)[C@H](O)[C@H]7O)[C@@H](O)[C@H](O)[C@H]6NC(=O)/C=C/c6ccc(Cl)cc6)C(C)(C)[C@@H]5CC[C@]43C)[C@@H]2C1
pIC50 [1]: < 4.30
pIC50 (HeLa): < 4.30
pIC50 (HepG2): < 4.30
pIC50 [2]: < 4.30
pIC50 (MCF7): < 4.30
pIC50 (A549): < 4.30

CC1(C)CC[C@]2(C(=O)O)CC[C@]3(C)C(=CC[C@@H]4[C@@]5(C)CC[C@H](O[C@@H]6O[C@H](CO[C@@H]7OC[C@H](O)[C@H](O)[C@H]7O)[C@@H](O)[C@H](O)[C@H]6NC(=O)/C=C/c6ccccc6)C(C)(C)[C@@H]5CC[C@]43C)[C@@H]2C1
pIC50 [1]: 4.71
pIC50 (HeLa): 4.40
pIC50 (HepG2): < 4.30
pIC50 [2]: < 4.30
pIC50 (MCF7): 4.35
pIC50 (A549): < 4.30

CC1(C)CC[C@]2(C(=O)O)CC[C@]3(C)C(=CC[C@@H]4[C@@]5(C)CC[C@H](O[C@@H]6O[C@H](CO[C@@H]7OC[C@H](O)[C@H](O)[C@H]7O)[C@@H](O)[C@H](O)[C@H]6NC(=O)/C=C/c6ccc(C(C)(C)C)cc6)C(C)(C)[C@@H]5CC[C@]43C)[C@@H]2C1
pIC50 [1]: 4.87
pIC50 (HeLa): 4.41
pIC50 (HepG2): < 4.30
pIC50 [2]: < 4.30
pIC50 (MCF7): < 4.30
pIC50 (A549): < 4.30

CC(=O)N[C@H]1[C@H](O[C@H]2CC[C@]3(C)[C@H]4CC=C5[C@@H]6CC(C)(C)CC[C@]6(C(=O)O)CC[C@@]5(C)[C@]4(C)CC[C@H]3C2(C)C)O[C@H](CO)[C@@H](O[C@@H]2O[C@H](CO)[C@@H](O)[C@H](O)[C@H]2O)[C@@H]1O[C@H]1O[C@@H](CO)[C@@H](O)[C@@H](O)[C@@H]1O
pIC50 [3]: 6.82
